Data on 19 compounds can be found in PubChem BioAssay (NCI).

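All cell lines were grown in 96-well plates and treated with compound for 48 hours. TGI is the concentration that stops growth completely.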

Some test systems named below: SF-268 CNS; MDA-MB-435; NCI/ADR-RES ovarian; A549 NSCLC; SNB-75 CNS; U251 CNS; SF-295 CNS; RPMI-8226 leukemia; MDA-MB-231 breast; KM12 colon; SNB-19 CNS.
Common to all, as to test: growth of human tumour cells (NCI), 48 h

As to `O=c1c2cc(Br)ccc2oc2nc3n(c(=O)c12)CCCS3`, the TGI in the experiment on SF-268 CNS, with MDA-MB-435, with NCI/ADR-RES ovarian, in the experiment on A549 NSCLC, in the experiment with SNB-75 CNS and in the experiment on U251 CNS was over 100 µM in each case. The TGI with SF-295 CNS, in the experiment with RPMI-8226 leukemia, in the experiment with MDA-MB-231 breast, in the experiment with KM12 colon and with SNB-19 CNS was over 100 µM throughout.

Take `C=CC1OC(CCCOC(=O)C(C)(C)C)O[C@@H]1CC` (some centres undefined): the TGI with SF-268 CNS, in the experiment with MDA-MB-435, in the experiment on NCI/ADR-RES ovarian, with A549 NSCLC, in the experiment on SNB-75 CNS and in the experiment on U251 CNS was over 100 µM in each case. Moreover, the TGI in the experiment on SF-295 CNS, in the experiment with RPMI-8226 leukemia, in the experiment with MDA-MB-231 breast, in the experiment with KM12 colon and in the experiment on SNB-19 CNS was over 100 µM throughout.

With `O=[N+]([O-])CC(SCc1ccccc1)c1ccc2c(c1)OCO2` (centres undefined), the TGI was over 61.2 µM with SF-268 CNS; 7.93 µM in the experiment with MDA-MB-435; 28.8 µM in the experiment on NCI/ADR-RES ovarian; 21.8 µM in the experiment with A549 NSCLC; 30.6 µM with SNB-75 CNS; 18.7 µM with U251 CNS. Besides, the TGI worked out at 23.1 µM with SF-295 CNS; 4.03 µM in the experiment on RPMI-8226 leukemia; 25.6 µM in the experiment on MDA-MB-231 breast; 19.1 µM in the experiment on KM12 colon; 28 µM with SNB-19 CNS.

Regarding `CCCCCCCCCCCCCCCCCCNc1ccn(C2OC(COP(=O)(O)O)C(O)C2O)c(=O)n1` (centres undefined), the TGI in the experiment with SF-268 CNS, with MDA-MB-435, in the experiment with NCI/ADR-RES ovarian, with A549 NSCLC, in the experiment on SNB-75 CNS and in the experiment on U251 CNS was over 100 µM in each case. Also, the TGI with SF-295 CNS, in the experiment with RPMI-8226 leukemia, in the experiment with MDA-MB-231 breast, in the experiment on KM12 colon and in the experiment with SNB-19 CNS was over 100 µM each time.

Turning to `FC(F)(F)c1ccc2c(c1)nc(Cc1ccccc1)n2C[C@@H]1CCCN2CCCCC12` (some centres undefined), the TGI is 31 µM in the experiment with SF-268 CNS; 30.4 µM in the experiment with MDA-MB-435; 30.9 µM with NCI/ADR-RES ovarian; 28.8 µM with A549 NSCLC; 29.9 µM in the experiment on SNB-75 CNS; 29.2 µM in the experiment with U251 CNS. The TGI with SF-295 CNS was determined as 29.6 µM; with RPMI-8226 leukemia, 82.7 µM; in the experiment on MDA-MB-231 breast it was 27.8 µM; in the experiment with KM12 colon it was 30.3 µM; with SNB-19 CNS, 28.6 µM.

On to `COC(=O)c1ccc2n1C1CC3CC(CC2C3)C1`, for which the TGI in the experiment on SF-268 CNS, with MDA-MB-435, with NCI/ADR-RES ovarian, with A549 NSCLC, in the experiment with SNB-75 CNS and in the experiment on U251 CNS was over 100 µM in each case. The TGI in the experiment with SF-295 CNS, with RPMI-8226 leukemia, in the experiment on MDA-MB-231 breast, with KM12 colon and in the experiment on SNB-19 CNS was over 100 µM throughout.

As for `C=C(C)CCC1CCCCC(CN(C)C)C1=O` (centres undefined), the TGI in the experiment on SF-268 CNS, in the experiment on MDA-MB-435, in the experiment on NCI/ADR-RES ovarian, with A549 NSCLC, in the experiment on SNB-75 CNS and in the experiment with U251 CNS was over 100 µM each time. The TGI in the experiment on SF-295 CNS, in the experiment on RPMI-8226 leukemia, in the experiment on MDA-MB-231 breast, with KM12 colon and with SNB-19 CNS was over 100 µM in each case.

As to `NC(=O)c1n[nH]n(-c2ccccc2)c1=O`, the TGI in the experiment on SF-268 CNS, in the experiment on MDA-MB-435, in the experiment with NCI/ADR-RES ovarian, in the experiment on A549 NSCLC, in the experiment on SNB-75 CNS and in the experiment with U251 CNS was over 100 µM throughout. In addition, the TGI in the experiment on SF-295 CNS, in the experiment with RPMI-8226 leukemia, in the experiment with MDA-MB-231 breast, in the experiment with KM12 colon and with SNB-19 CNS was over 100 µM each time.

In the case of `Cc1ccc(C(=O)CC(Cl)=C(Cl)Cl)cc1`, the TGI in the experiment on SF-268 CNS, in the experiment with MDA-MB-435, in the experiment on NCI/ADR-RES ovarian, with A549 NSCLC, in the experiment on SNB-75 CNS and in the experiment on U251 CNS was over 100 µM each time. Besides, the TGI was over 100 µM with SF-295 CNS; 74.3 µM with RPMI-8226 leukemia; over 100 µM in the experiment on MDA-MB-231 breast; over 100 µM with KM12 colon; over 100 µM in the experiment on SNB-19 CNS.

In the case of `COc1cccc(NCC(=O)Nn2c(-c3ccccc3)nc3ccccc3c2=O)c1`, the TGI in the experiment with SF-268 CNS, in the experiment on MDA-MB-435, in the experiment with NCI/ADR-RES ovarian, in the experiment on A549 NSCLC, in the experiment with SNB-75 CNS and in the experiment with U251 CNS was over 100 µM throughout. For the same compound, the TGI with SF-295 CNS, in the experiment with RPMI-8226 leukemia, in the experiment with MDA-MB-231 breast, in the experiment with KM12 colon and in the experiment on SNB-19 CNS was over 100 µM throughout.

Turning to `O=c1nc2n(cc1/C=C\Br)C1CC(O)C(CO2)O1` (centres undefined), the TGI with SF-268 CNS, in the experiment on MDA-MB-435, with NCI/ADR-RES ovarian, with A549 NSCLC, in the experiment on SNB-75 CNS and in the experiment on U251 CNS was over 100 µM each time. Also, the TGI in the experiment on SF-295 CNS, in the experiment with RPMI-8226 leukemia, in the experiment with MDA-MB-231 breast, with KM12 colon and with SNB-19 CNS was over 100 µM each time.

In the case of `CCN1/C(=C/c2ccc3ccccc3[n+]2CC)C=Cc2ccccc21`, the TGI in the experiment on SF-268 CNS worked out at 16.5 µM; in the experiment on MDA-MB-435, 1.67 µM; in the experiment on NCI/ADR-RES ovarian it was 88.9 µM; in the experiment with A549 NSCLC, 17.1 µM; in the experiment with SNB-75 CNS, 2.27 µM; with U251 CNS it was 11.1 µM. The TGI was 10.5 µM in the experiment with SF-295 CNS; over 23.4 µM in the experiment on RPMI-8226 leukemia; 8.12 µM in the experiment with MDA-MB-231 breast; 1.4 µM in the experiment with KM12 colon; 27.8 µM in the experiment with SNB-19 CNS.

In the case of `Oc1cc(Cl)cc2cc(Br)cnc12`, the TGI in the experiment on SF-268 CNS was over 48.1 µM; in the experiment on MDA-MB-435, over 100 µM; in the experiment with NCI/ADR-RES ovarian it was over 54.5 µM; in the experiment with A549 NSCLC, over 42.6 µM; in the experiment with SNB-75 CNS, over 100 µM; in the experiment on U251 CNS, 98.1 µM. Further, the TGI was over 45.4 µM with SF-295 CNS; 47.9 µM in the experiment on RPMI-8226 leukemia; over 100 µM in the experiment on MDA-MB-231 breast; over 100 µM in the experiment on KM12 colon; over 100 µM in the experiment with SNB-19 CNS.

With `COC(=O)NCCc1[nH]nc2c1C(=O)C=C(OC)C2=O`, the TGI is 36 µM in the experiment with SF-268 CNS; 27.7 µM with MDA-MB-435; over 100 µM in the experiment with NCI/ADR-RES ovarian; over 100 µM with A549 NSCLC; 40.2 µM in the experiment on SNB-75 CNS; 32 µM with U251 CNS. Besides, the TGI was determined as 32.2 µM in the experiment on SF-295 CNS; 53.9 µM with RPMI-8226 leukemia; 30.4 µM in the experiment with MDA-MB-231 breast; 41.3 µM with KM12 colon; 45.6 µM in the experiment with SNB-19 CNS.

With `COc1ccc(-c2cc(-c3ccc(Nc4ccnc5cc(C(F)(F)F)ccc45)cc3)[nH]c(=O)c2C#N)c2ccccc12`, the TGI is over 100 µM with SF-268 CNS; over 56.1 µM with MDA-MB-435; over 100 µM with NCI/ADR-RES ovarian; over 100 µM in the experiment with A549 NSCLC; 29.9 µM in the experiment on SNB-75 CNS; over 36.4 µM in the experiment with U251 CNS. Moreover, the TGI in the experiment on SF-295 CNS is over 100 µM; with RPMI-8226 leukemia, over 100 µM; in the experiment with MDA-MB-231 breast, over 59.8 µM; in the experiment on KM12 colon it was over 100 µM; with SNB-19 CNS it was over 54.7 µM.

For `COc1ccc(C(=O)N2CCN(c3ccc4c(c3)OCC(=O)N4)CC2)cc1`, the TGI with SF-268 CNS, with MDA-MB-435, in the experiment with NCI/ADR-RES ovarian, in the experiment on A549 NSCLC, with SNB-75 CNS and in the experiment on U251 CNS was over 100 µM throughout. The TGI in the experiment on SF-295 CNS, in the experiment with RPMI-8226 leukemia, in the experiment with MDA-MB-231 breast, with KM12 colon and in the experiment on SNB-19 CNS was over 100 µM each time.

For the compound `O=C1Oc2ccccc2C(=O)/C1=C/N1C(=O)/C(=C/c2ccc([N+](=O)[O-])cc2)SC1=S`, the TGI is 75.4 µM in the experiment on SF-268 CNS; 50.6 µM in the experiment on MDA-MB-435; 95.7 µM in the experiment with NCI/ADR-RES ovarian; over 100 µM in the experiment with A549 NSCLC; 54.3 µM in the experiment with SNB-75 CNS; over 100 µM in the experiment on U251 CNS. In addition, the TGI in the experiment with SF-295 CNS worked out at 68 µM; in the experiment on RPMI-8226 leukemia it was 42.1 µM; in the experiment with MDA-MB-231 breast it was 57.2 µM; in the experiment on KM12 colon, 52.3 µM; in the experiment on SNB-19 CNS, 79.1 µM.

`CC1=C/C(=N/N2C(=O)/C(=C/c3ccc(Cl)cc3)N=C2c2ccccc2)CC(C)(C)C1`: the TGI with SF-268 CNS was over 100 µM; with MDA-MB-435 it was over 100 µM; with NCI/ADR-RES ovarian, over 100 µM; in the experiment on A549 NSCLC, over 100 µM; in the experiment on SNB-75 CNS it was 93.6 µM; in the experiment with U251 CNS it was 69.7 µM. The TGI in the experiment on SF-295 CNS, in the experiment on RPMI-8226 leukemia, in the experiment on MDA-MB-231 breast, with KM12 colon and in the experiment on SNB-19 CNS was over 100 µM throughout.

As to `COC1(OC)N=C(N)C2(C#N)C(C)CC(=O)N(N(C)C)C12C#N` (centres undefined), the TGI in the experiment on SF-268 CNS, with MDA-MB-435, with NCI/ADR-RES ovarian, in the experiment on A549 NSCLC, in the experiment with SNB-75 CNS and in the experiment on U251 CNS was over 100 µM in each case. The TGI in the experiment with SF-295 CNS, in the experiment on RPMI-8226 leukemia, in the experiment on MDA-MB-231 breast, with KM12 colon and in the experiment on SNB-19 CNS was over 100 µM each time.
